Reference: ChEMBL document CHEMBL5380807, “Imidazo[1,2-a]Pyridine Derivatives as Novel Dual-Target Inhibitors of ABCB1 and ABCG2 for Reversing Multidrug Resistance” (J Med Chem, 2023)
The source made the active and inactive calls. The calls are words filed in the database; no cut-off is given here.

Tests used:
[1] = Cytotoxicity against human K562/A02 cells overexpressing ABCB1 assessed as decrease in cell survival rate incubated for 72 hrs by MTS assay; format: toxicity, cell-based
HEK293 [2] = assay: Reversal of ABCG2 mediated multidrug resistance in human HEK293 overexpressing ABCG2 assessed as decrease in survival rate at 1.25 to 5 uM preincubated for 1 hrs followed by topotecan addition and measured after 72 hrs by SRB assay; format: functional, cell-based; details: dose 1.25-5 µM, time 73.0 hrs
K562/A02 [3] = assay: Reversal of ABCB1 mediated multidrug resistance in human K562/A02 cells overexpressing ABCB1 assessed as decrease in survival rate at 1.25 uM preincubated for 1 hrs followed by vincristine addition and measured after 72 hrs by MTS assay; format: functional; details: time 73 hrs
HEK293 [4] = assay: Reversal of ABCG2 mediated mitoxantrone resistance in human HEK293 overexpressing ABCG2 assessed as decrease in survival rate at 1.25 to 5 uM preincubated for 1 hrs followed by mitoxantrone addition and measured after 72 hrs by SRB assay; format: functional, cell-based; details: dose 1.25-5 µM, time 73.0 hrs
[5] = AUCt in Sprague-Dawley rat at 5 mg/kg, iv by LC-MS/MS analysis; format: ADME, organism-based; design: dose 5 mg/kg, route iv; details: in vivo
[6] = AUC (0 to infinity) in Sprague-Dawley rat at 5 mg/kg, iv by LC-MS/MS analysis; format: ADME, organism-based; design: dose 5 mg/kg, route iv; details: in vivo
[7] = Metabolic stability in rat liver microsomes assessed as half life at 80 ug/ml preincubated for 5 mins followed by NADPH addition and measured upto 120 mins by LC-MS/MS analysis; format: ADME, Microsome; details: dose 80 µg/ml, time < 125 min
[8] = Toxicity in BALB/c mouse xenografted with human K562/A02 cells overexpressing ABCB1 assessed as body weight loss at 10 to 40 mg/kg, iv QD for 14 days in presence of adriamycin; format: organism-based; details: in vivo, 336 h, dose 10-40 mg/kg, time 14 day
K562 [9] = assay: Antitumor activity against human K562 cells xenografted in BALB/c mouse assessed as tumor growth inhibition at 40 mg/kg, iv QD for 14 days in presence of adriamycin; format: functional, organism-based; details: time 14.0 day
HEK293 [10] = assay: Reversal of ABCG2 mediated multidrug resistance in human HEK293 cells overexpressing ABCG2 assessed as change in abcg2 mRNA expression level at 2.5 uM incubated for 48 hrs by real time RT-PCR analysis; format: functional, cell-based
K562/A02 [11] = assay: Reversal of ABCB1 mediated multidrug resistance in human K562/A02 cells overexpressing ABCB1 assessed as decrease in survival rate at 1.25 to 5 uM preincubated for 1 hrs followed by vincristine addition and measured after 72 hrs by MTS assay; format: functional, cell-based; details: dose 1.25-5 µM, time 73.0 hrs
K562/A02 [12] = assay: Antitumor activity against human K562/A02 cells overexpressing ABCB1 xenografted in BALB/c mouse assessed as tumor growth inhibition at 40 mg/kg, iv QD for 14 days in presence of adriamycin; format: functional, organism-based; details: time 14.0 day
K562/A02 [13] = assay: Reversal of ABCB1 mediated adriamycin resistance in human K562/A02 overexpressing ABCB1 assessed as decrease in survival rate at 1.25 to 5 uM preincubated for 1 hrs followed by adriamycin addition and measured after 72 hrs by MTS assay; format: functional, cell-based; details: dose 1.25-5 µM, time 73.0 hrs
HEK293 [14] = assay: Reversal of ABCG2 mediated mitoxantrone resistance in human HEK293 assessed as decrease in survival rate at 1.25 to 5 uM preincubated for 1 hrs followed by mitoxantrone addition and measured after 72 hrs by SRB assay; format: functional, cell-based; details: dose 1.25-5 µM, time 73.0 hrs
HEK293 [15] = assay: Reversal of ABCG2 mediated multidrug resistance in human HEK293 cells overexpressing ABCG2 assessed as change in ABCG2 protein expression level at 2.5 uM incubated for 48 hrs by Western blot analysis; format: functional, cell-based
K562/A02 [16] = assay: Reversal of ABCB1 mediated multidrug resistance in human K562/A02 cells overexpressing ABCB1 assessed as decrease in survival rate at 1.25 to 5 uM preincubated for 1 hrs followed by paclitaxel addition and measured after 72 hrs by MTS assay; format: functional, cell-based; details: dose 1.25-5 µM, time 73.0 hrs
[17] = Stability in rat plasma assessed as parent compound remaining at 80 ug/ml and measured after 300 mins by LC-MS/MS analysis; format: ADME, cell-free; details: 5 h, at 80 µg/mL
[18] = Half life in Sprague-Dawley rat at 5 mg/kg, iv by LC-MS/MS analysis; format: ADME, organism-based; details: in vivo
K562/A02 [19] = assay: Reversal of ABCB1 mediated adriamycin resistance in human K562/A02 overexpressing ABCB1 assessed as decrease in survival rate at 5 uM preincubated for 1 hrs followed by adriamycin addition and measured after 72 hrs by MTS assay; format: functional
K562 [20] = assay: Reversal of ABCB1 mediated adriamycin resistance in human K562 assessed as decrease in survival rate at 1.25 to 5 uM preincubated for 1 hrs followed by adriamycin addition and measured after 72 hrs by MTS assay; format: functional, cell-based; details: dose 1.25-5 µM, time 73.0 hrs
[21] = target: ATP-dependent translocase ABCB1 (Homo sapiens, UniProt P08183); assay: Inhibition of ABCB1 (unknown origin) ATPase activity assessed as decrease in luminescence by firefly luciferase reporter assay
ATP-dependent translocase ABCB1, sequence (P08183 whole entry): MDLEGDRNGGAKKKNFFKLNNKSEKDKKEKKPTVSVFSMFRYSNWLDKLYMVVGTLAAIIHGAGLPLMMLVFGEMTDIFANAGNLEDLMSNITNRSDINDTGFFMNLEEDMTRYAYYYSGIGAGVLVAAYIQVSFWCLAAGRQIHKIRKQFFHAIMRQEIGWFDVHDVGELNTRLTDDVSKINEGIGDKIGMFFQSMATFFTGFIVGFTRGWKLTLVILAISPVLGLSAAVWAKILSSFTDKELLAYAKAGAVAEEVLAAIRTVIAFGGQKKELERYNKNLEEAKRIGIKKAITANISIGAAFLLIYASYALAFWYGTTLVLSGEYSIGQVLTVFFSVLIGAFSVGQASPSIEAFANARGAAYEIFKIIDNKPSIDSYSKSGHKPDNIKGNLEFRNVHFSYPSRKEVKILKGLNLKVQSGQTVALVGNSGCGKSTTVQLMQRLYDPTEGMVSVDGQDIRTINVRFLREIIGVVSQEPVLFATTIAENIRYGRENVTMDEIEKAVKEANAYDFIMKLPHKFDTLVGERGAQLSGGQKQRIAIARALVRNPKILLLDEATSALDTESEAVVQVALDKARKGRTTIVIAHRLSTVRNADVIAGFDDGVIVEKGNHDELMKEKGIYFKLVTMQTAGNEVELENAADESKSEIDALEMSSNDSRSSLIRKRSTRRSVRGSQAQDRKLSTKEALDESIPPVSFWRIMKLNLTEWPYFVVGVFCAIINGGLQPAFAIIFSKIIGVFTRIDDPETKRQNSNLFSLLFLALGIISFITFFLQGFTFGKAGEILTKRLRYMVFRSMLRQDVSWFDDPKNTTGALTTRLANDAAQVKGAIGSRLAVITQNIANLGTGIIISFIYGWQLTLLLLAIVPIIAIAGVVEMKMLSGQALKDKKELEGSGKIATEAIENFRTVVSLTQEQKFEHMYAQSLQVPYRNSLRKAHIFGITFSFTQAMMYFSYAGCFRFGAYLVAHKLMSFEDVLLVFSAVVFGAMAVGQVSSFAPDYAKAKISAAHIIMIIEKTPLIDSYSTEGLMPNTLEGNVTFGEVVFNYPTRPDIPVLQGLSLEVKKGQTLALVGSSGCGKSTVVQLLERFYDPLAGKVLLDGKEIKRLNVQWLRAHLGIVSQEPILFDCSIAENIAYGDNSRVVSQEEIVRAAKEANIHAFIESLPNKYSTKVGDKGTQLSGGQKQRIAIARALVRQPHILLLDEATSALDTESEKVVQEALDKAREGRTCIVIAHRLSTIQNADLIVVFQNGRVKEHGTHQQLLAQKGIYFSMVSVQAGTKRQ

K562/A02 [22] = assay: Reversal of ABCB1 mediated multidrug resistance in human K562/A02 cells overexpressing ABCB1 assessed as change in abcb1 mRNA expression level at 2.5 uM incubated for 72 hrs by real time RT-PCR analysis; format: functional, cell-based
K562/A02 [23] = assay: Reversal of ABCB1 mediated multidrug resistance in human K562/A02 cells overexpressing ABCB1 assessed as change in ABCB1 protein expression level at 2.5 uM incubated for 72 hrs by Western blot analysis; format: functional, cell-based
[24] = Metabolic stability in rat liver microsomes assessed as intrinsic clearance at 80 ug/ml preincubated for 5 mins followed by NADPH addition and measured upto 120 mins by LC-MS/MS analysis; format: ADME, Microsome; details: dose 80 µg/ml, time < 125 min, read-out: CLH
[25] = Toxicity in BALB/c mouse xenografted with human K562 cells assessed as body weight loss at 20 mg/kg, iv QD for 14 days; format: organism-based; details: in vivo, 336 h, time 14 day
[26] = Cytotoxicity against human HEK293 cells assessed as reduction in cell viability incubated for 72 hrs by SRB assay; format: toxicity, cell-based
[27] = Toxicity in BALB/c mouse xenografted with human K562 cells assessed as body weight loss at 10 to 40 mg/kg, iv QD for 14 days in presence of adriamycin; format: organism-based; details: in vivo, 336 h, dose 10-40 mg/kg, time 14 day
[28] = Volume of distribution at steady state in Sprague-Dawley rat at 5 mg/kg, iv by LC-MS/MS analysis; format: ADME, organism-based; details: in vivo, read-out: Vdss
HEK293 [29] = assay: Reversal of ABCG2 mediated multidrug resistance in human HEK293 overexpressing ABCG2 assessed as decrease in survival rate at 1.25 to 5 uM preincubated for 1 hrs followed by adriamycin addition and measured after 72 hrs by SRB assay; format: functional, cell-based; details: dose 1.25-5 µM, time 73.0 hrs
[30] = Clearance in Sprague-Dawley rat at 5 mg/kg, iv by LC-MS/MS analysis; format: ADME, organism-based; details: in vivo
[31] = Toxicity in iv dosed BALB/c mouse xenografted with human K562/A02 cells overexpressing ABCB1 assessed as lethality; format: organism-based; details: in vivo
[32] = target: T1, Broad substrate specificity ATP-binding cassette transporter ABCG2 (Homo sapiens, UniProt Q9UNQ0); assay: Inhibition of ABCG2 (unknown origin) ATPase activity assessed as decrease in luminescence by firefly luciferase reporter assay
T1 sequence (Q9UNQ0 whole entry): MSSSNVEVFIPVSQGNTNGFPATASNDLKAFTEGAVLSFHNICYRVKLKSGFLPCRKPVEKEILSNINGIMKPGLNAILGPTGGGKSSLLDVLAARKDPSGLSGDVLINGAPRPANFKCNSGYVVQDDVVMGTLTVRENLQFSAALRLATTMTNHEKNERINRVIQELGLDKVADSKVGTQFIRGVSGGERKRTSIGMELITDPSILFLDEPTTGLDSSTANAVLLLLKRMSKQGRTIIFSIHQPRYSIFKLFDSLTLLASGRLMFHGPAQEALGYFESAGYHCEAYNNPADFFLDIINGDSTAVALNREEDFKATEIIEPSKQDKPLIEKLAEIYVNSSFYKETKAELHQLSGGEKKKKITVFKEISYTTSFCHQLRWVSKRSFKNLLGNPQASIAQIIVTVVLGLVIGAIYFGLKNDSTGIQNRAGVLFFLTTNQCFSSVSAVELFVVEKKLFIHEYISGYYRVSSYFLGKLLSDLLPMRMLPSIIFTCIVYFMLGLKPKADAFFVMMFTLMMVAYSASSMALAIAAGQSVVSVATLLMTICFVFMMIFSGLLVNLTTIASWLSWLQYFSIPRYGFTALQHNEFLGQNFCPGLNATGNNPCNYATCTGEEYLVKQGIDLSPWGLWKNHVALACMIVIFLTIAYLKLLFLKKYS

[33] = Toxicity in BALB/c mouse xenografted with human K562/A02 cells overexpressing ABCB1 assessed as body weight loss at 20 mg/kg, iv QD for 14 days; format: organism-based; details: in vivo, 336 h, time 14 day
[34] = Cytotoxicity against human K562 cells assessed as decrease in cell survival rate incubated for 72 hrs by MTS assay; format: toxicity, cell-based
[35] = Cytotoxicity against human HEK293 cells expressing ABCG2 assessed as reduction in cell viability incubated for 72 hrs by SRB assay; format: toxicity, cell-based

O=C(CN1CCN(c2ccc(OC(F)(F)F)cc2)CC1)Nc1ccc(-c2nc3ccccn3c2CN2CCN(c3ccccc3)CC2)cc1
IC50 at 72 h [1]: > 100 µM | Activity (HEK293 [2]): Active | Activity (K562/A02 [3]): 56% | Activity (HEK293 [4]): Active | AUC(0-t) [5]: 651 ng·h/mL | AUC(0-inf) [6]: 676 ng·h/mL | half-life at 80 ug/ml [7]: 1.02 h | Activity [8]: Non-Toxic | Activity (K562 [9]): inactive | Activity (HEK293 [10]): inactive | Activity (K562/A02 [11]): Active | Activity (K562/A02 [12]): Active | Activity (K562/A02 [13]): Active | Activity (HEK293 [14]): inactive | Activity (HEK293 [15]): inactive | Activity (K562/A02 [16]): Active | Stability [17]: Stable | half-life [18]: 2.25 h | Activity (K562/A02 [19]): <30% | Activity (K562 [20]): inactive | inhibition (INH) [21]: Active | Activity (K562/A02 [22]): inactive | Activity (K562/A02 [23]): inactive | microsomal CLint at 80 ug/ml [24]: 2.27 µL/min/mg | Activity [25]: Non-Toxic | IC50 at 72 h [26]: 53.4 µM | Activity [27]: Non-Toxic | Vd [28]: 9.41 L/kg | Activity (HEK293 [29]): Active | clearance [30]: 130 mL/min/kg | LD50 [31]: > 200 mg/kg/day | inhibition (INH) [32]: Active | Activity [33]: Non-Toxic | IC50 at 72 h [34]: > 100 µM | IC50 at 72 h [35]: 67.7 µM
